Data taken from PubChem BioAssay (NCI).
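These data come from cells grown in 96-well plates and exposed to compound for 48 hours at five concentrations. The concentration for 50% growth inhibition is given as GI50. TGI: total growth inhibition.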

Columns and labels:
Test in all cases: NCI tumour cell line growth inhibition, 48 h
CCRF-CEM leukemia = tested on: CCRF-CEM leukemia
COLO 205 colon = tested on: COLO 205 colon
IGROV1 ovarian = tested on: IGROV1 ovarian
LOX IMVI melanoma = tested on: LOX IMVI melanoma
M19-MEL melanoma = tested on: M19-MEL melanoma
SF-539 CNS = tested on: SF-539 CNS
SNB-78 CNS = tested on: SNB-78 CNS
SW-620 colon = tested on: SW-620 colon
TK-10 renal = tested on: TK-10 renal
NCI/ADR-RES ovarian = tested on: NCI/ADR-RES ovarian

| Structure (SMILES) | TGI (CCRF-CEM leukemia) | TGI (COLO 205 colon) | TGI (IGROV1 ovarian) | TGI (LOX IMVI melanoma) | TGI (M19-MEL melanoma) | TGI (SF-539 CNS) | TGI (SNB-78 CNS) | TGI (SW-620 colon) | TGI (TK-10 renal) | GI50 (CCRF-CEM leukemia) | GI50 (COLO 205 colon) | GI50 (IGROV1 ovarian) | GI50 (LOX IMVI melanoma) | GI50 (NCI/ADR-RES ovarian) | TGI (NCI/ADR-RES ovarian) | GI50 (SF-539 CNS) | GI50 (SW-620 colon) | GI50 (TK-10 renal) |
| --- | --- | --- | --- | --- | --- | --- | --- | --- | --- | --- | --- | --- | --- | --- | --- | --- | --- | --- |
| NC(N)=NS(=O)(=O)c1ccc(NCc2c3ccccc3nc3ccccc23)cc1 | 9.03 µM | > 100 µM | 65 µM | 58 µM | > 100 µM | 4.72 µM | > 66.9 µM | > 87.7 µM | > 88 µM |  |  |  |  |  |  |  |  |  |
| CC(C)(C)NN=C1C(C)(C)C(=NNC(C)(C)C)C1(C)C |  | > 100 µM | > 100 µM | > 100 µM | > 100 µM | > 100 µM | > 100 µM | > 100 µM | > 100 µM |  |  |  |  |  |  |  |  |  |
| CSC(C1c2ccccc2N(C)C2=NC(=O)N(C)C(=O)C21Cl)S(=O)(=O)c1ccc(C)cc1 (centres undefined) | 28.3 µM | > 100 µM | > 100 µM | > 100 µM | > 100 µM | > 100 µM | > 100 µM | 71.1 µM | > 100 µM |  |  |  |  |  |  |  |  |  |
| COC1=CC(O)(CC(N)=O)c2ccccc2C1=O (centres undefined) | > 100 µM | > 100 µM | > 100 µM | > 100 µM | > 100 µM |  | > 100 µM | > 100 µM | > 100 µM |  |  |  |  |  |  |  |  |  |
| COc1ccc(C2=NNC(=O)OC2c2ccccc2)cc1 (centres undefined) | > 100 µM | > 100 µM | > 100 µM | > 100 µM | > 100 µM | > 100 µM | > 100 µM | > 100 µM | > 100 µM |  |  |  |  |  |  |  |  |  |
| CC/C=C1\N=C(c2ccc(Cl)cc2)OC1=O | > 100 µM | > 100 µM | > 100 µM | > 100 µM | > 100 µM | > 100 µM | > 100 µM | > 100 µM | > 100 µM |  |  |  |  |  |  |  |  |  |
| COc1cc2c(cc1OC)-c1cc3cc(OC)c(OC)cc3n1CC2 | > 100 µM | > 100 µM | > 100 µM |  | > 100 µM |  | > 100 µM | > 100 µM | 51.9 µM |  |  |  |  |  |  |  |  |  |
| C=C/C=C(\NC(=O)C(Cl)(Cl)Cl)[Si](C)(C)C | > 100 µM | > 100 µM | > 100 µM | > 100 µM | > 100 µM | > 100 µM | > 100 µM | > 100 µM | > 100 µM |  |  |  |  |  |  |  |  |  |
| Cc1cc(N(CCC#N)S(C)(=O)=O)ccc1C=O | > 100 µM | > 100 µM | > 100 µM | > 100 µM |  | > 100 µM | > 100 µM | > 100 µM |  |  |  |  |  |  |  |  |  |  |
| N#CC(C(=O)/C(=N\Nc1nc(=S)[nH]n1N)C(C#N)c1ccc(Cl)cc1)c1ccc(Cl)cc1 (centres undefined) |  | > 100 µM | > 100 µM | > 100 µM | > 100 µM | > 100 µM | > 100 µM | > 100 µM | > 100 µM |  |  |  |  |  |  |  |  |  |
| CCCN(CCCC(NC(C)=O)C(=O)NCc1ccccc1)C(=O)NC (centres undefined) | > 100 µM | > 100 µM | > 100 µM | > 100 µM | > 100 µM | > 100 µM | > 100 µM | > 100 µM | > 100 µM |  |  |  |  |  |  |  |  |  |
| COc1ccc(/C(=N/NC(=O)NN)C(c2ccc(OC)cc2)C2(O)CNc3c(Cl)cc(Cl)cc32)cc1 (centres undefined) | > 100 µM | > 100 µM | > 100 µM | > 100 µM | > 100 µM | > 100 µM | > 100 µM | > 100 µM | > 100 µM |  |  |  |  |  |  |  |  |  |
| O=C(CC1(O)C(=O)Nc2ccccc21)c1ccccc1Cl (centres undefined) |  | > 100 µM | > 100 µM | > 100 µM | > 100 µM | > 100 µM | > 100 µM | > 100 µM | > 100 µM |  |  |  |  |  |  |  |  |  |
| COC1(OC)CC2C=C(S(=O)(=O)c3ccccc3)C1N(Cc1ccccc1)C2=O (centres undefined) | 90.9 µM | 43.4 µM | > 100 µM | 33.1 µM | > 100 µM | 44.9 µM | 75.9 µM | 76.8 µM | 66.4 µM |  |  |  |  |  |  |  |  |  |
| Cn1c2c(c3ccccc31)C1CCCCC1C1C(=O)NC(=O)C21 (centres undefined) | > 100 µM | > 100 µM | > 100 µM | > 100 µM | > 100 µM | > 100 µM | > 100 µM | > 100 µM | > 100 µM |  |  |  |  |  |  |  |  |  |
| Cc1ccc(NC(=O)c2cccc([N+](=O)[O-])c2O)c([N+](=O)[O-])c1 | > 100 µM | 38.6 µM | 44.9 µM | 25.1 µM | 27.6 µM | 34.3 µM | > 100 µM | 39.5 µM |  |  |  |  |  |  |  |  |  |  |
| O=C(CO)CC(=O)C(=O)Nc1nc([N+](=O)[O-])cs1 | > 100 µM | > 100 µM | > 100 µM | > 100 µM | > 100 µM | > 100 µM | > 100 µM | > 100 µM | > 100 µM |  |  |  |  |  |  |  |  |  |
| CC1C[C@H](OC(N)=O)C(C)CC1=O (some centres undefined) | > 100 µM | > 100 µM | > 100 µM | > 100 µM | > 100 µM | > 100 µM | > 100 µM | > 100 µM | > 100 µM |  |  |  |  |  |  |  |  |  |
| CC(C)c1ccccc1NC(=O)C(=O)Cc1nc2ccccc2s1 | > 100 µM | > 100 µM | > 100 µM |  | > 100 µM | > 100 µM | > 100 µM | > 100 µM | > 100 µM |  |  |  |  |  |  |  |  |  |
| Cc1ccc(-c2nc(SCC(=O)O)n[nH]2)cc1 | > 100 µM | > 100 µM | > 100 µM |  | > 100 µM | > 100 µM | > 100 µM | > 100 µM | > 100 µM |  |  |  |  |  |  |  |  |  |
| Cc1ccc(NC(=O)NC(=O)c2ccc([N+](=O)[O-])cc2[N+](=O)[O-])cc1Oc1ncc(Cl)cn1 | > 62.3 µM | 5.9 µM | 29.7 µM | 11.9 µM | 21.7 µM | 0.91 µM | 26.5 µM | 12.6 µM | > 100 µM |  |  |  |  |  |  |  |  |  |
| CC(=O)Nc1ccc(Sc2ccc([N+](=O)[O-])o2)cc1 | 3.93 µM | 1.82 µM | 4.27 µM | 3.05 µM |  | 11 µM |  | 2.22 µM | 5.99 µM | 0.886 µM | 0.651 µM | 1.27 µM | 1.45 µM | 2.88 µM | 11.3 µM | 3.13 µM | 0.767 µM | 2.13 µM |
| CCOC(=O)C(=O)Nc1c(F)cc(F)cc1Br | > 100 µM | > 100 µM | > 100 µM | > 100 µM | > 100 µM | > 100 µM | > 100 µM | > 100 µM | > 100 µM |  |  |  |  |  |  |  |  |  |
| C=C(C)[C@@H]1CC[C@]2(C)[C@H](C(=O)C=C3[C@@H]4C[C@](C)(C(=O)N5CCN(C)CC5)CC[C@]4(C)CC[C@]32C)[C@@]1(C)CCC#N | 16.3 µM | 13.4 µM | 14.6 µM | 12.6 µM |  | 12.7 µM |  | 14.9 µM | 15.5 µM | 6.62 µM | 5.78 µM | 6.58 µM | 6.24 µM | 6.83 µM | 13.9 µM | 6.3 µM | 6.99 µM | 8.16 µM |
